Here are results for 5 compounds from BindingDB's records for doi:10.1016/j.chembiol.2016.11.013 (Peking University, 2017).

Assay [1] deals with T1, D-3-phosphoglycerate dehydrogenase (Homo sapiens, UniProt O43175).
T1 sequence (O43175 whole entry): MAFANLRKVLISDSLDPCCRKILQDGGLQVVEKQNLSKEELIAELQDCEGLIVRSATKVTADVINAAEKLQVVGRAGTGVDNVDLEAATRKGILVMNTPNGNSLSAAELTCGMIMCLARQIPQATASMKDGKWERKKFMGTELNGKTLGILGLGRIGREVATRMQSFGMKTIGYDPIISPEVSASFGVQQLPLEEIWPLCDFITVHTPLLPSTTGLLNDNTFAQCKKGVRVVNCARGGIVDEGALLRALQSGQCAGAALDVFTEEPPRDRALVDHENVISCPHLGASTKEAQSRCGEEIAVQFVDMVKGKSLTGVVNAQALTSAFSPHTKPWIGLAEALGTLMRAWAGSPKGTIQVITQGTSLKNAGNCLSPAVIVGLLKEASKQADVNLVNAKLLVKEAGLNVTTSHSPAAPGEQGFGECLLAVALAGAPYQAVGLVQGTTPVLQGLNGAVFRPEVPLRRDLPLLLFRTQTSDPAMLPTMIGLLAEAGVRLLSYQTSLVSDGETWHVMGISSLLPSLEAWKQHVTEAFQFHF
The assay can be described thus: PHGDH Enzyme Assay. The settings on record: pH 7.1. On the procedure:
(§1) To evaluate the effects of compounds on PHGDH activity, compounds were first pre-incubated with enzyme samples in the assay buffer (25 mM HEPES, pH 7.1, 400 mM KCl, 5 μM phosphopyridoxa (PLP), 0.5 mM α-ketoglutarate, 150 μM NADH, 1 mM DTT) for 10 min at 25℃, then the reaction was started by adding L-phospho-O-serine (Pser). […] Fluorescence signals were recorded for 3 min with a kinetics mode program using on a plate reader (Synergy, Biotek).

The target in assay [2] is T2, D-3-phosphoglycerate dehydrogenase [3-314] (Homo sapiens, UniProt O43175).
T2 construct: 3-314
T2 sequence (O43175 whole entry): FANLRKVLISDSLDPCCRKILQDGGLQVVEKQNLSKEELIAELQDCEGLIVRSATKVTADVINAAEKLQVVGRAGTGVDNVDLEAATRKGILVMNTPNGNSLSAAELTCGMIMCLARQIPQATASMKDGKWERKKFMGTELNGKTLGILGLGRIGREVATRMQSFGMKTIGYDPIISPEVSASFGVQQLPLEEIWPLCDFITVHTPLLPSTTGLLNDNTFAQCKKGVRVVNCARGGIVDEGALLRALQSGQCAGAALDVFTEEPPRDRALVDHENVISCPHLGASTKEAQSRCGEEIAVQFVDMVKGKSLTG
The assay is described as follows: PHGDH Enzyme Assay. The settings on record: pH 7.1. On the procedure: as §1

Assay [3] concerns the target T1, D-3-phosphoglycerate dehydrogenase. The assay is described as follows: PHGDH SPR Assay. The settings on record: pH 7.4. On the procedure: The binding affinities of compounds towards PHGDH were assayed using the SPR-based Biacore T200 instrument (GE Healthcare). PHGDH was immobilized on a CM5 sensor chip by using standard amine-coupling at 25℃ with running buffer PBS-P (20 mM phosphate buffer, […], 0.05% surfactant P-20, pH 7.4), respectively, as described previously. A reference flow cell was activated and blocked in the absence of PHGDH. […] Regeneration was achieved by extended washing with the running buffer after each sample injection.

In general, IC50 refers to the concentration at which inhibition is half-maximal. What is called Kd is the concentration at which binding is half-saturated.

SMILES strings stand for the structures.

Regarding `O=C1N[C@H]2[C@H](CS[C@H]2CCCCC(=O)OCc2cc([N+](=O)[O-])cc(/C=N/NC(=O)c3ccc(O)cc3O)c2O)N1` [PKUMDL-WQ-2101-Biotin], in assay [1], the IC50 stood at 49.5 µM.

Take `O=C(N/N=C/c1cc([N+](=O)[O-])ccc1O)c1ccc(O)cc1O` [PKUMDL-WQ-2101]: the half-inhibitory concentration (IC50) in assay [1] stood at 44.9 µM; in assay [2], 30.1 µM. The compound also gave a Kd in assay [3] of 0.56 µM.

Regarding `CCNC(=S)N/N=C\c1ccc(-c2ccc(C(=O)O)c(Cl)c2)o1` [PKUMDL-WQ-2201], the IC50 in assay [2] turned out to be 35 µM. For the same compound, the dissociation constant (Kd) in assay [3] (read-out: Kd) stood at 66.9 µM.

Take `Cc1c(/N=N/c2cccc(C(=O)O)c2)c(O)[nH]c(=O)c1C#N` [PKUMDL-WQ-2202]: in assay [1], the 50% inhibitory concentration (IC50) was found to be 42 µM. Further, the Kd in assay [3] (read-out: Kd) turned out to be 29 µM.

For the compound `O=C(O)CSC1=C(SCC(=O)O)C(=O)C(SCC(=O)O)=C(SCC(=O)O)C1=O` [PKUMDL-WQ-2203], the IC50 in assay [1] amounted to 28.1 µM. Moreover, the Kd in assay [3] (read-out: Kd) worked out at 7.22 µM.
